Laboratory results as given in PubChem BioAssay AID2060882 (Molecular Pharmacology Branch, DTP, NCI, 2025).
Several values for one entry are separate records, joined by “and”; a condition that tells them apart may be missing. Equal values may be shown once.

System: 898857-211-R-J1-PDC complex spheroids, growth % test/control
Assay: Anticancer human tumor 898857-211-R-J1-PDC patient-derived melanoma cell line growth inhibition [RAS]
Conditions: for viability, T/C: stronger effect = lower value
Excerpt: RAS pathway inhibitors in Combinations in Complex Spheroids
A high-throughput screen of multi-cell type tumor spheroids was designed to identify active combinations of RAS pathway inhibitors and targeted small molecules. Complex spheroids include a stromal component modeled by human endothelial cells (HUVEC) and fibroblasts modeled by human mesenchymal stem cells (MSCs). The concentration ranges selected for each drug and investigational agent were based upon clinically achievable concentrations if the clinical Cmax of the agent was known.
Compounds. The drugs and investigational agents: abemaciclib (NSC768073), cobimetinib (NSC768068), divarasib (GDC6063, NSC841802), docetaxel (NSC628503), GDC-1971 (RLY-1971, NSC841576), gemcitabine (NSC613327), inavolisib (NSC800729), ipatasertib (NSC767898), KB-0742 (NSC834161), MRTX-1133 (NSC836407), osimertinib (NSC779217), RMC-4630 (NSC839698), RMC-6236 (NSC851965), RMC-6291 (NSC852671), Ro-3306 (NSC812927), sapanisertib (NSC764658), SN-38 (NSC673596), staurosporine (NSC755774), SY5609 (NSC837396), and tovorafenib (DAY101, NSC766906), were obtained from the National Cancer Institute (NCI) Developmental Therapeutics Program Chemical Repository. The FDA-approved anticancer drug set is available from the NCI Developmental Therapeutics Program. […] The stock solutions were prepared in dimethyl sulfoxide (DMSO, Sigma-Aldrich, St. Louis, MO, cat. D2650) at 800-fold the tested concentration and stored at -70 degrees C prior to their use. All drugs and investigational agents were tested over a range starting from a high concentration at or near the clinical Cmax and decreasing in half-log increments. If the clinical Cmax for an agent had not been determined, the highest concentration tested was 10 microM.
Cell Culture. All cells were maintained in an incubator at 37 degrees C and 5% CO2 with 95% humidity. The PDC lines were cultured according to standard operating procedures established by the NCI PDMR. All PDCs were thawed and cultured in Matrigel-coated flasks prepared with a working solution of 1X Ham's F-12 nutrient mix, without supplementation (Invitrogen, Waltham, MA, cat. 11765054), 100 U/mL penicillin-streptomycin (Invitrogen, cat. 15140122), and 2.5% Matrigel (Corning Inc., Corning, NY, cat. 354248) for the first three passages. The 362531-283-R-J2-PDC and 782815-120-R-J1-PDC lines were cultured in 6C/Colon 1B media, which includes advanced DMEM/F-12 (Thermo Fisher Scientific, cat. 12634028), 10 mM HEPES (Thermo Fisher Scientific, cat. 15630080), 1X GlutaMAX supplement (Thermo Fisher Scientific, cat. 35050061), 0.1 mg/mL primocin (InvivoGen, San Diego, CA, cat. ant-pm-2), 10% defined fetal bovine serum, heat inactivated (HyClone Laboratories Inc., Logan, UT, cat. SH30070.03HI), 50% L-WRN conditioned media (ATCC, cat. CRL-3276), 1.25 mM N-Acetyl-L-cysteine (Sigma-Aldrich, cat. A9165), 10 mM nicotinamide (Sigma-Aldrich, cat. N0636), 1X B-27 supplement (Thermo Fisher Scientific, cat. 17504044), 1X N-2 supplement (Thermo Fisher Scientific, cat. 17502048), 50 ng/mL human EGF (Thermo Fisher Scientific, cat. PHG0311), and 10 microM Y-27632 dihydrochloride (Tocris Bioscience, cat. 1254). The K12877-001-R-J1-PDC line was cultured in 6I media, which includes all 6C/Colon 1B media plus 10 ng/mL human FGF-10 (PeproTech, cat. 100-26), 1 ng/mL human FGF-2 (PeproTech, cat. 100-18B), 1 µM prostaglandin E2 (Tocris Bioscience, cat. 2296), […] hydrocortisone (Sigma-Aldrich, cat. H4001), and […] bovine insulin (Sigma-Aldrich, cat. I6634). The K86415-001-R-J1-PDC line was cultured in 6D media, which includes all 6C/Colon 1B media components minus the L-WRN conditioned media. The 485176-168-R4-J1-PDC was cultured in PANC media, which includes all 6C/Colon 1B media plus 100 ng/mL human FGF-10 (PeproTech, cat. 100-26), 500 nM SB-431542 (Selleckchem, cat. S1067), and 10 nM gastrin (Tocris Bioscience, cat. 3006). […]
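Further: spheroids exposed to compound for seven days before readout.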
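Wherever viability, T/C is given: 100% = DMSO vehicle control wells.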

C#Cc1c(F)ccc2cc(O)cc(-c3ncc4c(N5CC6CCC(C5)N6)nc(OCC56CCCN5CC(F)C6)nc4c3F)c12 (centres undefined)
viability, T/C (compound 0.0316 µM): 105% [middle of 8 runs]
viability, T/C (compound 0.1 µM): 111% [middle of 8 runs]
viability, T/C (compound 0.316 µM): 108% [middle of 8 runs]
viability, T/C (compound 1 µM): 109% [middle of 8 runs]
viability, T/C (compound 3.16 µM): 103% [middle of 8 runs]
viability, T/C (compound 10 µM): 50.8% [middle of 8 runs]

C=CC(=O)N1CCN(c2nc(OCC3CCCN3C)nc3c(F)c(-c4nc(N)cc(C)c4C(F)(F)F)c(Cl)cc23)C(C)C1 (centres undefined)
viability, T/C (compound 0.00316 µM, compound 0.0316 µM): 121%
viability, T/C (compound 0.00316 µM, compound 0.1 µM): 105%
viability, T/C (compound 0.00316 µM, compound 0.316 µM): 117%
viability, T/C (compound 0.00316 µM, compound 1 µM): 124%
viability, T/C (compound 0.00316 µM): 110% [middle of 11 runs]
viability, T/C (compound 0.01 µM, compound 0.00316 µM): 98.1%
viability, T/C (compound 0.01 µM, compound 0.0316 µM): 108%
viability, T/C (compound 0.01 µM, compound 0.1 µM): 112%
viability, T/C (compound 0.01 µM, compound 0.316 µM): 116%
viability, T/C (compound 0.01 µM, compound 1 µM): 127%
viability, T/C (compound 0.01 µM): 108% [middle of 12 runs]
viability, T/C (compound 0.0316 µM, compound 0.00316 µM): 102%
viability, T/C (compound 0.0316 µM, compound 0.01 µM): 108%
viability, T/C (compound 0.0316 µM, compound 0.1 µM): 103%
viability, T/C (compound 0.0316 µM, compound 0.316 µM): 115%
viability, T/C (compound 0.0316 µM, compound 1 µM): 122%
viability, T/C (compound 0.0316 µM): 112% [middle of 12 runs]
viability, T/C (compound 0.1 µM, compound 0.00316 µM): 109%
viability, T/C (compound 0.1 µM, compound 0.01 µM): 103%
viability, T/C (compound 0.1 µM, compound 0.0316 µM): 122%
viability, T/C (compound 0.1 µM, compound 0.316 µM): 118%
viability, T/C (compound 0.1 µM, compound 1 µM): 127%
viability, T/C (compound 0.1 µM): 114% [middle of 12 runs]
viability, T/C (compound 0.316 µM, compound 0.00316 µM): 125%
viability, T/C (compound 0.316 µM, compound 0.01 µM): 121%
viability, T/C (compound 0.316 µM, compound 0.0316 µM): 119%
viability, T/C (compound 0.316 µM, compound 0.1 µM): 125%
viability, T/C (compound 0.316 µM, compound 1 µM): 127%
viability, T/C (compound 0.316 µM): 115% [middle of 12 runs]
viability, T/C (compound 1 µM, compound 0.00316 µM): 115%
viability, T/C (compound 1 µM, compound 0.01 µM): 126%
viability, T/C (compound 1 µM, compound 0.0316 µM): 123%
viability, T/C (compound 1 µM, compound 0.1 µM): 112%
viability, T/C (compound 1 µM, compound 0.316 µM): 119%
viability, T/C (compound 1 µM): 116% [middle of 12 runs]
IC50 (compound alone, run of 09/09/2024): > 1000 nM
IC50 (curve of compound): > 1000 nM

C=CC(=O)Nc1cc(Nc2nccc(-c3cn(C)c4ccccc34)n2)c(OC)cc1N(C)CCN(C)C
viability, T/C (compound 0.00316 µM): 113% and 103% (2×) and 128%
viability, T/C (compound 0.01 µM): 99.8% [middle of 4 runs]
viability, T/C (compound 0.0316 µM): 114% [middle of 4 runs]
viability, T/C (compound 0.1 µM): 102% [middle of 4 runs]
viability, T/C (compound 0.316 µM): 92.8% [middle of 4 runs]
viability, T/C (compound 1 µM): 54.5% [middle of 4 runs]
IC50 (curve of compound): 970 nM and > 1000 nM and 799 nM

CC(=O)OC12COC1CC(O)C1(C)C(=O)C(O)C3=C(C)C(OC(=O)C(O)C(NC(=O)OC(C)(C)C)c4ccccc4)CC(O)(C(OC(=O)c4ccccc4)C21)C3(C)C (centres undefined)
viability, T/C (compound 0.0316 µM): 13% [middle of 4 runs]
viability, T/C (compound 0.1 µM): 13% [middle of 4 runs]
viability, T/C (compound 0.316 µM): 13.3% [middle of 4 runs]
viability, T/C (compound 1 µM): 15.8% [middle of 4 runs]
viability, T/C (compound 3.16 µM): 17.8% [middle of 4 runs]
viability, T/C (compound 10 µM): 20.8% [middle of 4 runs]
IC50 (curve of compound): < 31.6 nM

CC(Nc1ccc2c(c1)OCCn1cc(N3C(=O)OCC3C(F)F)nc1-2)C(N)=O (centres undefined)
viability, T/C (compound 0.0316 µM): 101% [middle of 4 runs]
viability, T/C (compound 0.1 µM): 90.6% [middle of 4 runs]
viability, T/C (compound 0.316 µM): 102% [middle of 4 runs]
viability, T/C (compound 1 µM): 91.9% [middle of 4 runs]
viability, T/C (compound 3.16 µM): 95.3% [middle of 4 runs]
viability, T/C (compound 10 µM): 70.9% [middle of 4 runs]
IC50 (curve of compound): > 10000 nM

CC1(O)CCCC1n1c(=O)c(C(F)F)cc2cnc(NC3CCN(S(C)(=O)=O)CC3)nc21 (centres undefined)
viability, T/C (compound 0.0316 µM): 93.3% and 97.5% and 83.3%
viability, T/C (compound 0.1 µM): 58.4% and 53.8% and 49.8%
viability, T/C (compound 0.316 µM): 42.2% (2×) and 39.9%
viability, T/C (compound 1 µM): 45.2% and 35.5% and 38.7%
viability, T/C (compound 3.16 µM): 41% and 30.3% and 45.7%
viability, T/C (compound 10 µM): 21.5% and 15.1% and 17.7%
IC50 (curve of compound): 232 nM and 169 nM and 149 nM

CCC(CC)c1cc(NC2CCC(N)C2)n2nccc2n1 (centres undefined)
viability, T/C (compound 0.0316 µM): 113% [middle of 4 runs]
viability, T/C (compound 0.1 µM): 99.5% [middle of 4 runs]
viability, T/C (compound 0.316 µM): 97.5% [middle of 4 runs]
viability, T/C (compound 3.16 µM): 1.39% [middle of 4 runs]
viability, T/C (compound 10 µM): 0.28% [middle of 4 runs]
IC50 (curve of compound): 1.04 µM [middle of 4 runs]

CCN1CCN(Cc2ccc(Nc3ncc(F)c(-c4cc(F)c5nc(C)n(C(C)C)c5c4)n3)nc2)CC1
viability, T/C (compound 0.00316 µM): 112% and 130% and 92.5%
viability, T/C (compound 0.01 µM): 92% (2×) and 103%
viability, T/C (compound 0.0316 µM): 97.3% and 96% and 83%
viability, T/C (compound 0.1 µM): 73.1% and 62.7% and 65.1%
viability, T/C (compound 0.316 µM): 51.2% and 51.1% and 55.3%
viability, T/C (compound 1 µM): 44.4% and 36% and 33.4%
IC50 (curve of compound): 444 nM and 323 nM and 370 nM

Cc1nc(N2CCC3(CC2)COC(C)C3N)c(CO)nc1Sc1ccnc(N)c1Cl (centres undefined)
viability, T/C (compound 0.0316 µM): 100% [middle of 4 runs]
viability, T/C (compound 0.1 µM): 89.5% [middle of 4 runs]
viability, T/C (compound 0.316 µM): 101% [middle of 4 runs]
viability, T/C (compound 1 µM): 95.5% [middle of 4 runs]
viability, T/C (compound 3.16 µM): 99.2% [middle of 4 runs]
viability, T/C (compound 10 µM): 93.4% [middle of 4 runs]
IC50 (curve of compound): > 10000 nM

NC1c2ccccc2OC12CCN(c1cnc3c(N4CCCc5ncccc54)n[nH]c3n1)CC2 (centres undefined)
viability, T/C (compound 0.0316 µM): 98.9% [middle of 4 runs]
viability, T/C (compound 0.1 µM): 88.9% [middle of 4 runs]
viability, T/C (compound 0.316 µM): 97.4% [middle of 4 runs]
viability, T/C (compound 1 µM): 87% [middle of 4 runs]
viability, T/C (compound 3.16 µM): 94.4% [middle of 4 runs]
IC50 (curve of compound): > 10000 nM and 9390 nM

Nc1ccn(C2OC(CO)C(O)C2(F)F)c(=O)n1 (centres undefined)
viability, T/C (compound 0.01 µM): 30.2% [middle of 4 runs]
viability, T/C (compound 0.0316 µM): 6.09% [middle of 4 runs]
viability, T/C (compound 0.1 µM): 4.85% [middle of 4 runs]
viability, T/C (compound 0.316 µM): 4.59% [middle of 4 runs]
viability, T/C (compound 1 µM): 4.83% [middle of 4 runs]
IC50 (curve of compound): 7.17 nM [middle of 4 runs]

O=C(c1ccc(F)c(F)c1Nc1ccc(I)cc1F)N1CC(O)([C@@H]2CCCCN2)C1
viability, T/C (compound 0.00316 µM): 56.5% [middle of 4 runs]
viability, T/C (compound 0.01 µM): 40.4% (2×) and 26.7% and 33.1%
viability, T/C (compound 0.0316 µM): 28.9% [middle of 4 runs]
viability, T/C (compound 0.1 µM): 20.3% [middle of 4 runs]
viability, T/C (compound 0.316 µM): 18.5% [middle of 4 runs]
viability, T/C (compound 1 µM): 13.4% [middle of 4 runs]
